The source of these data is US8614063B2, “Methods for screening for compounds for treating cancer” (PTC Therapeutics, Inc., priority 2008, dated 2013).

Broadly, the EC50 is the midpoint of the concentration-response curve. What is called CC50 is the concentration giving 50% cytotoxicity. The low end stands for greater toxicity to the cells, the high end for lower toxicity to the cells.

Each structure is given as a SMILES string.

The subject of one series is Bmi-1. Nature of the series: Bmi-1 Sandwich ELISA (endogenous Bmi-1 protein in HT-1080 cells). In kind it is cell-based, human. To be noted: 40-48 hours compound treatment. The procedure:
In another embodiment, the levels of endogenous Bmi-1 are determined by the Bmi-1 Sandwich ELISA. A Sandwich ELISA measures the amount of antigen, in this case Bmi-1, between two layers of antibodies (i.e. capture and detection antibody). The capture antibody is immobilized in the wells of an ELISA plate and when a cell lysate or other sample is added to the plate, the specific protein of interest (Bmi-1) is bound by this capture antibody. A second antibody, called the detecting antibody, is then added, which binds to the bound protein and helps increase the signal. […] Either monoclonal or polyclonal antibodies can be used as the capture and detection antibodies in Sandwich ELISA systems. Monoclonal antibodies recognize a single epitope that allows fine detection and quantification of […] differences in antigen. A polyclonal is often used as the capture antibody to pull down as much of the antigen as possible.
HT-1080 cells were seeded at 5000 cells/well (50 μL) in 96-well tissue culture plates. After the cells become adherent (3-4 hours), 2× diluted stocks of compounds in 50 μL DMEM containing 1% DMSO (final DMSO concentration was 0.5%) were added and the plates were incubated at 37° C. under 5% CO2 for 40-48 hours
The plate was covered with a plate seal and allowed to stand overnight.
1× Lysis Buffer (40 μL) was added to each well and the plate was shaken for 5-10 minutes on an orbital shaker to allow cell lysis, then Diluent (1% BSA in PBS in 0.5% NP40) (100 μL) was added to each well.
Aliquots can be kept at 4° C. and reused after first thaw, but only for 1-2 weeks. The Bmi-1 Recombinant Protein Standard contains a GST and thus will show up on western blots around 70 Kda.
The prepared ELISA plate was washed 3× with Wash Buffer (0.05% Tween-20 in PBS). The final wash was removed from the plate and the plate was blotted dry on paper towels. Blocking Buffer (300 μL) (1% BSA in PBS) was added per well. The plate was covered with a plate seal and incubated at room temperature for 1 hour. The blocked plate was washed 3× with Wash Buffer, the final wash was removed and the plate was blotted dry on paper towels. The previously prepared samples and standards were added (at 100 μL/well) and the plate was covered with a plate seal and incubated at 4° C. overnight.
The prepared ELISA plate was removed from 4° C., incubated at room temperature for 30 minutes, then washed and blotted dry as previously described for Day 3. […] The plate was covered with a plate seal and incubated for 1.5 hrs at room temperature.
The ELISA plate was washed and blotted dry as previously described.
The plate was incubated for 20-30 minutes at room temperature in the dark, then Stop Solution (2 M sulfuric acid in water) ([…]) was added per well. The plates were read at OD450 (experimental) and OD570 (reference).

Series [1] has as its system firefly luciferase (fLuc) reporter gene flanked by the 5′-UTR and 3′-UTR of Bmi-1 mRNA. Nature of the series: Luciferase reporter gene assay in stable 293H cells. In kind it is cell-based. To be noted: Homo sapiens, fLuc flanked by Bmi-1 5′-UTR and 3′-UTR. The source says:
A high-level expression vector, pcDNA™3.1/Hygro (Invitrogen Corp., Carlsbad, Calif.) was used for preparing the constructs comprising the luciferase gene flanked by any of the Bmi-1 5′-UTR and 3′-UTR, or the Bmi-1 5′-UTR or the Bmi-1 3′-UTR of Bmi-1 mRNA. In a pcDNA™3.1/Hygro vector, the UTRs and restriction sites associated with cloning, expressing, or cloning and expressing a gene of interest or a reporter gene were removed or replaced. For each construct containing 5′-UTR sequences, the 5′-UTR sequences with the first 21 nucleotides of Bmi-1 ORF were cloned into the vector using the appropriate restriction sites so that the first 21 nucleotides were in frame with the luciferase reporter gene.
The cells were passaged every 4 days at 1:10 dilution. Cultures were kept in a 37° C. and 5% CO2 incubator. The cells were scaled-up over a three day period before performing the assay. Two confluent T175 flasks were split into twenty T175 flasks (1:10 dilution). Cells were harvested from each confluent flask by removing all of the media and adding 4 mL of warmed trypsin to dislodge the cells. After the cells were dislodged, 16 mL of selective media was added for a final volume of 20 mL. The cells were expanded by adding 2 mL of the harvested cells into ten new T175 flasks plus 25 mL of selective media. The twenty new flasks are placed into the 37° C., 5% CO2 incubator. On the day the assay was performed, the media was removed from the flasks and 3 mL of warmed trypsin was added to dislodge the cells. After the cells were dislodged, 10 mL of nonselective media was to the flask. This was repeated for all twenty flasks and combined into one flask. 100 μL of the above cell culture plus 100 μL of Trypan Blue stain was counted on a hemocytometer.
Luciferase activity was immediately assayed using a ViewLux Imaging system (Perkin Elmer).
Background: A reporter such as luciferase makes a cellular process visible.

A short description of series [2]: CellTiter-Glo cytotoxicity assay, U937. In kind it is cell-based. To be noted: human, U937 cells (monocyte cell line); U937, relatively sensitive cell line. An excerpt: To evaluate cytotoxicity of the compounds in the 293H cell lines, the CellTiter-Glo® assay (Promega) is utilized. CellTiter-Glo® determines the number of viable cells in culture based on quantification of the ATP present, which signals the presence of metabolically active cells. A reduction in cellular ATP is indicative of a cytotoxic or cytostatic effect. Doxorubicin, a known cytotoxic compound, is used to address the sensitivity of the tested cell line. For relatively sensitive cell lines, such as U937 (a human monocyte cell line), the CC50 of doxorubicin ranges from 4 to 10 nM.
For orientation: ATP-based viability assays read luminescence as a measure of living cells.

Series [3] in a line: CellTiter-Glo cytotoxicity assay, Huh7. In kind it is cell-based. To be noted: human, Huh7 cells (hepatocellular carcinoma cell line); Huh7, intermediate level of sensitivity.

Take `COc1cc(Br)c(Nc2nc(-c3cnc4ccc(Cl)cn34)cs2)c(Br)c1` [Compound 7, 4-(6-chloroimidazo[1,2-a]pyridine-3-yl)-N-(2,6-dibromo-4-methoxyphenyl)thiazol-2-amine]: the EC50 in the series on Bmi-1 was determined as 360 nM; in series [1], 750 nM.
As to `COc1cc(Br)c(Nc2nc(-c3c(C)nc4ncccn34)cs2)c(Br)c1` [Compound 1, N-(2,6-dibromo-4-methoxyphenyl)-4-(2-methylimidazo[1,2-a]pyrimidin-3-yl)thiazol-2-amine], the results for the EC50 (in the series on Bmi-1; in series [1]) were 410 nM and 530 nM, respectively.
With `COc1cc(Cl)c(Nc2nc(-c3c(C)nc4ncccn34)cs2)c(Cl)c1` [Compound 2, N-(2,6-dichloro-4-methoxyphenyl)-4-(2-methylimidazo[1,2-a]pyrimidin-3-yl)thiazol-2-amine], the EC50 in the series on Bmi-1 was found to be 660 nM; in series [1], 910 nM.
Taken in the same sequence, the figures for `COCCOc1cc(Br)c(Nc2nc(-c3c(C)nc4ncccn34)cs2)c(Br)c1` [Compound 6, N-(2,6-dibromo-4-(2-methoxyethoxy)phenyl)-4-(2-methylimidazo[1,2-a]pyrimidin-3-yl)thiazol-2-amine] were 1700 nM and 2600 nM.
With `Cc1cc(Br)c(Nc2nc(-c3c(C)nc4ncccn34)cs2)c(Br)c1` [Compound 4, N-(2,6-dibromo-4-methylphenyl)-4-(2-methylimidazo[1,2-a]pyrimidin-3-yl)thiazol-2-amine], the EC50 with Bmi-1 stood at 320 nM; in series [1], 540 nM.
For `Cc1nc2ncccn2c1-c1csc(Nc2c(Br)cc(Br)cc2Br)n1` [Compound 5, 4-(2-methylimidazo[1,2-a]pyrimidin-3-yl)-N-(2,4,6-tribromophenyl)thiazol-2-amine], the EC50 was 710 nM in the series on Bmi-1 and 800 nM in series [1].
Taken in the same sequence, the figures for `Cc1cc(Br)c(Nc2nc(-c3cnc4ccc(Cl)cn34)cs2)c(Br)c1` [Compound 8, 4-(6-chloroimidazo[1,2-a]pyridine-3-yl)-N-(2,6-dibromo-4-methylphenyl)thiazol-2-amine] were 390 nM and 3800 nM.
On to `COc1cccc2c1C(=O)c1c(O)c3c(c(O)c1C2=O)C[C@@](O)(C(=O)CO)C[C@@H]3O[C@H]1C[C@H](N)[C@H](O)[C@H](C)O1` [doxorubicin, Doxorubicin], for which the CC50 in series [2] lay in the range of 4 to 10 nM; in series [3], 70 to 300 nM.
In the case of `COc1cc(Cl)c(Nc2nc(-c3cnc4ccc(Cl)cn34)cs2)c(Cl)c1` [Compound 9, 4-(6-chloroimidazo[1,2-a]pyridine-3-yl)-N-(2,6-dichloro-4-methoxyphenyl)thiazol-2-amine], the values for the EC50 (in the series on Bmi-1; in series [1]) were 1090 nM and 940 nM, respectively.
The like results for `COc1cc(F)c(Nc2nc(-c3c(C)nc4ncccn34)cs2)c(F)c1` [Compound 3, N-(2,6-difluoro-4-methoxyphenyl)-4-(2-methylimidazo[1,2-a]pyrimidin-3-yl)thiazol-2-amine] were, in that order, above 3000 nM and 17600 nM.
